ChEMBL document CHEMBL3991601, “The target landscape of clinical kinase drugs” (Science, 2017)
Counter-ions that a name gives are not always drawn. Calls of active or inactive are those of the source. For most assays here, no stated cut-off is given here; in the data, actives have a measured Kd and inactives only a lower limit.

Legend:
[1] = biological target: RAC-alpha serine/threonine-protein kinase (Homo sapiens, UniProt P31749)
[2] = biological target: Serine/threonine-protein kinase/endoribonuclease IRE2 (Homo sapiens, UniProt Q76MJ5)
Chain of Serine/threonine-protein kinase/endoribonuclease IRE2 (Q76MJ5 whole entry): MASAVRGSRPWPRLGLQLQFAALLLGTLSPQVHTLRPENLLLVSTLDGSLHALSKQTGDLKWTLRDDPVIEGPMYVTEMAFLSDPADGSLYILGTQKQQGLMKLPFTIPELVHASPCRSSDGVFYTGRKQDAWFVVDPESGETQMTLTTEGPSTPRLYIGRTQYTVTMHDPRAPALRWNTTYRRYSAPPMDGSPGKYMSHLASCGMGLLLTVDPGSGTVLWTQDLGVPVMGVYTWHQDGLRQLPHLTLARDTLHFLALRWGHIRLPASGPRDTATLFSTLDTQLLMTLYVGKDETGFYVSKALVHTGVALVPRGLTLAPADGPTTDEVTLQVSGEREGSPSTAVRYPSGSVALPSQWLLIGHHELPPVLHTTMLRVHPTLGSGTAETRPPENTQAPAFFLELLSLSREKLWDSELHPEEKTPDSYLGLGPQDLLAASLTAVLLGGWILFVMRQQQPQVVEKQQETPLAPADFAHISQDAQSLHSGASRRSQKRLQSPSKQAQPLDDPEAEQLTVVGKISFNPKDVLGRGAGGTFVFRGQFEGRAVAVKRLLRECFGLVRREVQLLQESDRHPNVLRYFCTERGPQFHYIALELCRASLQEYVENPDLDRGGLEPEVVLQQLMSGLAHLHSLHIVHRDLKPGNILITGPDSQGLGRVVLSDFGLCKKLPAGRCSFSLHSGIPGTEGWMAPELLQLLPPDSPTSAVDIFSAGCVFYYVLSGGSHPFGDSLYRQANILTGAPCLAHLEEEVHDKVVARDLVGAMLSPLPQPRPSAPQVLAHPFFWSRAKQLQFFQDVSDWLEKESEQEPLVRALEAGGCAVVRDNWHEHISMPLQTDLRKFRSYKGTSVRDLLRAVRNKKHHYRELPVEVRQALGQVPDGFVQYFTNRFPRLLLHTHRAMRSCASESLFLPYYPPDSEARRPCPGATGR

[3] = biological target: Interleukin-1 receptor-associated kinase 1 (Homo sapiens, UniProt P51617)
Chain of Interleukin-1 receptor-associated kinase 1 (P51617 whole entry): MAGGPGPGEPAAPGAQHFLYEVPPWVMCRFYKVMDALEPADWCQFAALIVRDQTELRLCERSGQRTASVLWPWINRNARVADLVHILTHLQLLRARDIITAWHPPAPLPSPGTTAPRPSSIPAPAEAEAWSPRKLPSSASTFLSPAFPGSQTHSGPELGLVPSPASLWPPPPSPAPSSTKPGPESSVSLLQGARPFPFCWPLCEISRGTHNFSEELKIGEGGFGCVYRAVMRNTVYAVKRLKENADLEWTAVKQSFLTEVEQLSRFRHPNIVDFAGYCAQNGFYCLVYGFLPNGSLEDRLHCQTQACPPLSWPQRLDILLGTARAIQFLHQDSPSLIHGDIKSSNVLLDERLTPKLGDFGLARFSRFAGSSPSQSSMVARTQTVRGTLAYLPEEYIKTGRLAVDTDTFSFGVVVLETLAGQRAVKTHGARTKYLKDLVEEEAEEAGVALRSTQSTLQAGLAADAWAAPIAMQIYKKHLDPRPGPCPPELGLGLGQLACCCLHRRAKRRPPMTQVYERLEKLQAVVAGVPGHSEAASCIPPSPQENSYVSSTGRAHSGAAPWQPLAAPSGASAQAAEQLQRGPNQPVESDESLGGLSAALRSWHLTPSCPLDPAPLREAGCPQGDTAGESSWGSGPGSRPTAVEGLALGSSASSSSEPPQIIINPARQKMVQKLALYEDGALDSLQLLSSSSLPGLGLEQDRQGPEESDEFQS

Heme oxygenase 2 = biological target: T1, Heme oxygenase 2 (Homo sapiens, UniProt P30519)
T1 sequence (P30519 whole entry): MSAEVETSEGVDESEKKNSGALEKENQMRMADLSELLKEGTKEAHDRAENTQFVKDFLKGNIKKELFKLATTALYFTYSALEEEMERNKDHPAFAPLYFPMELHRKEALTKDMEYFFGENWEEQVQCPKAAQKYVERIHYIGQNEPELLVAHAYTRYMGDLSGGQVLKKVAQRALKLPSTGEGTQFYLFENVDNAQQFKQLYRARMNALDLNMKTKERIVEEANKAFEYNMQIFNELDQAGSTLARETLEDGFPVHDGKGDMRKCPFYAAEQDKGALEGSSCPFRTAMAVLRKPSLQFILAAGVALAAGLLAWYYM

[4] = biological target: T2, Phosphorylase b kinase gamma catalytic chain, liver/testis isoform (Homo sapiens, UniProt P15735)
T2 sequence (P15735 whole entry): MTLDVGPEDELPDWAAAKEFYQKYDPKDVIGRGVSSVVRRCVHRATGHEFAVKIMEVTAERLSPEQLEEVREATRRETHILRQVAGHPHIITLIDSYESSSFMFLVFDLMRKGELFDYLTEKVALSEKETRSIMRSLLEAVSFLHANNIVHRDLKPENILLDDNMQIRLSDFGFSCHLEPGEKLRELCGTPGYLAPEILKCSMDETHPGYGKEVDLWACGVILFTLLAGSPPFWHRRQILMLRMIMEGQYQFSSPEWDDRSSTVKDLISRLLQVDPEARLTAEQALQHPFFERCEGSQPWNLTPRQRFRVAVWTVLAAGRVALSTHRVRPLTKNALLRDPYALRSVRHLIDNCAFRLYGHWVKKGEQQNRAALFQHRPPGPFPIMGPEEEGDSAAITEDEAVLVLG

[5] = biological target: Tyrosine-protein kinase Fyn (Homo sapiens, UniProt P06241)
Chain of Tyrosine-protein kinase Fyn (P06241 whole entry): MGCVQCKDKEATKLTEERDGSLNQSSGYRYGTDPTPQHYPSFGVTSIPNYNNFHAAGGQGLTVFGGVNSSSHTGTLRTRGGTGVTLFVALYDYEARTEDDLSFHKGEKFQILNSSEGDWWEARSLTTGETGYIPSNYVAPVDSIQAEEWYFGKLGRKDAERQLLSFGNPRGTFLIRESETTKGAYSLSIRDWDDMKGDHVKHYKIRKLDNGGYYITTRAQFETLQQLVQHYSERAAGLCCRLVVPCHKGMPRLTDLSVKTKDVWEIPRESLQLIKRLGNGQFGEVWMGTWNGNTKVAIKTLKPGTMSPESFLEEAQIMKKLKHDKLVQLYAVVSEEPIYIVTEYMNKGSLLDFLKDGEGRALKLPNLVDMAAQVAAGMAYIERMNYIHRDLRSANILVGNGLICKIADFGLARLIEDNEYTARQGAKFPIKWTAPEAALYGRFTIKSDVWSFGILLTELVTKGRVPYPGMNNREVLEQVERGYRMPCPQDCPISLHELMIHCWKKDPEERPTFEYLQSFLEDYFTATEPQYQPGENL

[6] = biological target: T3, Mitogen-activated protein kinase kinase kinase 2 (Homo sapiens, UniProt Q9Y2U5)
T3 sequence (Q9Y2U5 whole entry): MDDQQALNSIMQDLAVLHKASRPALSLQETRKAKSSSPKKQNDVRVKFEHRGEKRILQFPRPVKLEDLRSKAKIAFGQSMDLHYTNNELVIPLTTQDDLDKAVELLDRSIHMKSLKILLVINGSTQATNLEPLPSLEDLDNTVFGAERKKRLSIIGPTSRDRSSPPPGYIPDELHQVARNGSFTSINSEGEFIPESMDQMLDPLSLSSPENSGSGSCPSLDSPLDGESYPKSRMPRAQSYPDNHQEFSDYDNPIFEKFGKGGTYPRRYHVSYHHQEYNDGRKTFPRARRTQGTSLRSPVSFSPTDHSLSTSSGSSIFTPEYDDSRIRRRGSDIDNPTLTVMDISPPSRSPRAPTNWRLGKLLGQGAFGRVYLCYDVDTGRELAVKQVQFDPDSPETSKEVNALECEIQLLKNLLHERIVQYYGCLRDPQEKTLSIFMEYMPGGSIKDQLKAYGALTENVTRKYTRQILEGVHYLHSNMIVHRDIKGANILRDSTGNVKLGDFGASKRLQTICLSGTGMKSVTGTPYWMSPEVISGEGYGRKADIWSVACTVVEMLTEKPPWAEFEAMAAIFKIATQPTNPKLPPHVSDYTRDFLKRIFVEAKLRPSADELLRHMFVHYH

[7] = biological target: T4, ATP-dependent RNA helicase DDX1 (Homo sapiens, UniProt Q92499)
T4 sequence (Q92499 whole entry): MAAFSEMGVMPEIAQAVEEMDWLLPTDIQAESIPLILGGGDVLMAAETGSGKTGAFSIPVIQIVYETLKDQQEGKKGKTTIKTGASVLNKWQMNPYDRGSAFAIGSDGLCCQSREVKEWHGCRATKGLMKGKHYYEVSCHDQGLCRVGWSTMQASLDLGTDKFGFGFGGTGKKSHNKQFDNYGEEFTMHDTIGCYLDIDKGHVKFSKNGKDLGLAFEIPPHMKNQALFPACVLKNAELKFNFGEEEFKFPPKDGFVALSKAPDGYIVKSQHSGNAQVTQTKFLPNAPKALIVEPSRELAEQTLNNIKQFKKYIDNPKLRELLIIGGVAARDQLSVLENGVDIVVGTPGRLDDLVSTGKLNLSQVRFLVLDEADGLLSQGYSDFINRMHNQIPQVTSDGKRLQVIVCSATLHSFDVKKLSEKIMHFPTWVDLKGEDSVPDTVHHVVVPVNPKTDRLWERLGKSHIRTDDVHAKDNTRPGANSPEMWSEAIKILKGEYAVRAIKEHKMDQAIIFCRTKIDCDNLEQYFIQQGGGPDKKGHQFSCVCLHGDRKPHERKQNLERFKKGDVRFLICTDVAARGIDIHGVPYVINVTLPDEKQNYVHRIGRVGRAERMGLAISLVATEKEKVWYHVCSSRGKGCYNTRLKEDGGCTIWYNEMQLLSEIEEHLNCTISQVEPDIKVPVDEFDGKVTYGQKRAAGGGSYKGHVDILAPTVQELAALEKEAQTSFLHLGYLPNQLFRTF

[8] = biological target: T5, Dual specificity mitogen-activated protein kinase kinase 5 (Homo sapiens, UniProt Q13163)
T5 sequence (Q13163 whole entry): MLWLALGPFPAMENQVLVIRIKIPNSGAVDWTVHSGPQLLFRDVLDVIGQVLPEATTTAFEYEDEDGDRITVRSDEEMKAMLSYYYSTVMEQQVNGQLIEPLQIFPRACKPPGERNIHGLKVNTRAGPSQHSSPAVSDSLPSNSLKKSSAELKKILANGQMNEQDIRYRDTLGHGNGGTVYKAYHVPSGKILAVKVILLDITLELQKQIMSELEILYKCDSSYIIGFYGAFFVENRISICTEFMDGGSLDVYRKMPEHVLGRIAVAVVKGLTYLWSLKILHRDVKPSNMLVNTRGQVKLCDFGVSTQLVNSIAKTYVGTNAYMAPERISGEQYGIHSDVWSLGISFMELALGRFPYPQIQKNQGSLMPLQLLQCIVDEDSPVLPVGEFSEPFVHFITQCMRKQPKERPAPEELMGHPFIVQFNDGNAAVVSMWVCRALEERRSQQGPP

Chain of RAC-alpha serine/threonine-protein kinase (P31749 whole entry): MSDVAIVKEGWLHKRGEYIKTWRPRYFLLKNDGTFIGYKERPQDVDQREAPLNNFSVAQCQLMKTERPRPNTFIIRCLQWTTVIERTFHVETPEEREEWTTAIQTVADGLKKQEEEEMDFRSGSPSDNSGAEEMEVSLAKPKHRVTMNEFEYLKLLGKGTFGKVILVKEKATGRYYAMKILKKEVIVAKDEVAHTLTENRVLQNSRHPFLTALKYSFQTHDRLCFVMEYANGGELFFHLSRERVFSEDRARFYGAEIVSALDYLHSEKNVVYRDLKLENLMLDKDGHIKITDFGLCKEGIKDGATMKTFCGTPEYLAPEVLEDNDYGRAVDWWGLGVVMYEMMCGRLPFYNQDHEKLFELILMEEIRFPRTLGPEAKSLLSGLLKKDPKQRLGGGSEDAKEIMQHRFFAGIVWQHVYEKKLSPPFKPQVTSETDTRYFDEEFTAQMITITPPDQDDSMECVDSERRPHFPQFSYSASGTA

Structure (SMILES)	Kd [1]	Kd [2]	Kd [3]	Kd (Heme oxygenase 2)	Kd [4]	Kd [5]	Kd [6]	Kd [7]	Kd [8]
COc1c(OCCCN2CCOCC2)ccc2c1N=C(NC(=O)c1cnc(N)nc1)N1CCN=C21 [COPANLISIB]	> 30 µM (inactive)	> 30 µM (inactive)	> 30 µM (inactive)	> 30 µM (inactive)	> 30 µM (inactive)	> 30 µM (inactive)	> 30 µM (inactive)	> 30 µM (inactive)	> 30 µM (inactive)
COCC(=O)NC/C=C/c1ccc2ncnc(Nc3ccc(Oc4ccc(C)nc4)c(C)c3)c2c1 [CP-724714]	> 30 µM (inactive)	> 30 µM (inactive)	> 30 µM (inactive)	> 30 µM (inactive)	> 30 µM (inactive)	> 30 µM (inactive)	> 30 µM (inactive)	> 30 µM (inactive)	1.26 µM (active)
C#Cc1cccc(Nc2ncnc3cc(OC)c(OCCCCCCC(=O)NO)cc23)c1 [CUDC-101]	> 30 µM (inactive)	> 30 µM (inactive)	> 30 µM (inactive)	> 30 µM (inactive)	> 30 µM (inactive)	> 30 µM (inactive)	> 30 µM (inactive)	> 30 µM (inactive)	> 30 µM (inactive)
O=C(Nc1nc2cccc(-c3ccc(CN4CCS(=O)(=O)CC4)cc3)n2n1)C1CC1 [FILGOTINIB]	> 30 µM (inactive)	> 30 µM (inactive)	4.71 µM (active)	> 30 µM (inactive)	> 30 µM (inactive)	> 30 µM (inactive)	> 30 µM (inactive)	> 30 µM (inactive)	> 30 µM (inactive)
Cc1cccc(-c2nn3c(c2-c2ccnc4ccc(C(N)=O)cc24)CCC3)n1 [GALUNISERTIB]	> 30 µM (inactive)	> 30 µM (inactive)	> 30 µM (inactive)	> 30 µM (inactive)	> 30 µM (inactive)	> 30 µM (inactive)	> 30 µM (inactive)	> 30 µM (inactive)	> 30 µM (inactive)
CCn1cc(-c2ccnc3[nH]c(-c4cccc(CN(C)C)c4)cc23)c(-c2ccc(NC(=O)N(C)C)cc2)n1 [GSK-1070916]	> 30 µM (inactive)	> 30 µM (inactive)	> 30 µM (inactive)	> 30 µM (inactive)	> 30 µM (inactive)	> 30 µM (inactive)	> 30 µM (inactive)	> 30 µM (inactive)	1.93 µM (active)
COc1ccc(S(=O)(=O)N(C(C)=O)c2ccccc2/C=C/c2cc[n+]([O-])cc2)cc1 [HMN-214]	> 30 µM (inactive)	> 30 µM (inactive)	> 30 µM (inactive)	> 30 µM (inactive)	> 30 µM (inactive)	> 30 µM (inactive)	> 30 µM (inactive)	> 30 µM (inactive)	> 30 µM (inactive)
O=C(Nc1cc(C(F)(F)F)cc(C(F)(F)F)c1)c1cc(Cl)ccc1O [IMD-0354]	> 30 µM (inactive)	> 30 µM (inactive)	> 30 µM (inactive)	> 30 µM (inactive)	> 30 µM (inactive)	> 30 µM (inactive)	> 30 µM (inactive)	> 30 µM (inactive)	> 30 µM (inactive)
COc1ncc(-c2ccc3nccc(-c4ccnnc4)c3c2)cc1NS(=O)(=O)c1ccc(F)cc1F [OMIPALISIB]	> 30 µM (inactive)	> 30 µM (inactive)	> 30 µM (inactive)	> 30 µM (inactive)	> 30 µM (inactive)	> 30 µM (inactive)	> 30 µM (inactive)	> 30 µM (inactive)	> 30 µM (inactive)
CCCCCCCCCCCCCCCCCCOP(=O)([O-])OC1CC[N+](C)(C)CC1 [PERIFOSINE]	> 30 µM (inactive)	> 30 µM (inactive)	> 30 µM (inactive)	> 30 µM (inactive)	> 30 µM (inactive)	> 30 µM (inactive)	> 30 µM (inactive)	> 30 µM (inactive)	> 30 µM (inactive)

Continued, values first:

Kd [1]	Kd [2]	Kd [3]	Kd (Heme oxygenase 2)	Kd [4]	Kd [5]	Kd [6]	Kd [7]	Kd [8]	Structure (SMILES)
> 30 µM (inactive)	> 30 µM (inactive)	> 30 µM (inactive)	> 30 µM (inactive)	> 30 µM (inactive)	> 30 µM (inactive)	0.747 µM (active)	> 30 µM (inactive)	0.656 µM (active)	CCS(=O)(=O)N1CCN(c2ccc(Nc3ncc(C(N)=O)c(NC4CC4)n3)cc2)CC1 [Cerdulatinib Hydrochloride]
> 30 µM (inactive)	> 30 µM (inactive)	> 30 µM (inactive)	> 30 µM (inactive)	> 30 µM (inactive)	> 30 µM (inactive)	> 30 µM (inactive)	> 30 µM (inactive)	> 30 µM (inactive)	CNC(=O)c1cccc2cc(Oc3ccnc4cc(OCC5(N)CC5)c(OC)cc34)ccc12 [LUCITANIB]
> 30 µM (inactive)	> 30 µM (inactive)	> 30 µM (inactive)	> 30 µM (inactive)	> 30 µM (inactive)	> 30 µM (inactive)	> 30 µM (inactive)	> 30 µM (inactive)	> 30 µM (inactive)	CN(C[C@@H]1COCCO1)S(=O)(=O)Nc1ccc2ccc3ncc(-c4cnn(C)c4)cc3c(=O)c2c1 [MK-2461]
> 30 µM (inactive)	> 30 µM (inactive)	> 30 µM (inactive)	> 30 µM (inactive)	> 30 µM (inactive)	> 30 µM (inactive)	> 30 µM (inactive)	> 30 µM (inactive)	> 30 µM (inactive)	Cn1cc(-c2cnc3ccc4ccc(CS(=O)(=O)NCc5ccccn5)cc4c(=O)c3c2)cn1 [MK-8033]
> 30 µM (inactive)	> 30 µM (inactive)	> 30 µM (inactive)	> 30 µM (inactive)	> 30 µM (inactive)	> 30 µM (inactive)	> 30 µM (inactive)	> 30 µM (inactive)	> 30 µM (inactive)	FC(F)(F)c1ccc(/C=C/c2nc(COc3ccc(CCCCn4ccnn4)cc3)co2)cc1 [MUBRITINIB]
